Test results: patent publication US12215100B2, “Anticancer compounds” (Pharma Mar, S.A., priority 2018, dated 2025)

Columns and labels:
Format in all cases: cell-based, human
PSN-1 = test: SRB colorimetric cytotoxicity assay, PSN-1; conditions: 72 hours treatment, pancreatic adenocarcinoma
Source text: (§1) The aim of this assay is to evaluate the in vitro cytostatic (ability to delay or arrest tumor cell growth) or cytotoxic (ability to kill tumor cells) activity of the samples being tested.
(§2) A colorimetric assay, using sulforhodamine B (SRB) reaction has been adapted to provide a quantitative measurement of cell growth and viability (following the technique described by V. Vichai and K. Kirtikara (2006) Nature Protoc. 1, 1112-1116.)
(§3) This form of assay employs 96-well cell culture microplates. All the cell lines used in this study were obtained from the American Type Culture Collection (ATCC), unless otherwise indicated, and derive from different types of human cancer.
(§4) Cells were maintained in Dulbecco's Modified Eagle Medium (DMEM) (for A549, HT-29 and MDA-MB-231) or RPMI (for PSN-1) supplemented with 10% Fetal Bovine Serum (FBS), 2 mM L-glutamine, 100 U/mL penicillin and 100 U/mL streptomycin at 37° C., 5% CO2 and 98% humidity. For the experiments, cells were harvested from subconfluent cultures using trypsinization and resuspended in fresh medium before counting and plating.
(§5) Cells were seeded in 96 well microtiter plates, at 5×10^3 cells per well in aliquots of 150 μL, and allowed to attach to the plate surface for 18 hours (overnight) in drug free medium. After that, one control (untreated) plate of each cell line was fixed (as described below) and used for time zero reference value. […] After 72 hours treatment, the antitumor effect was measured by using the SRB methodology: Briefly, cells were washed twice with PBS, fixed for 15 min in 1% glutaraldehyde solution at room temperature, rinsed twice in PBS, and stained in 0.4% SRB solution for 30 min at room temperature. Cells were then rinsed several times with 1% acetic acid solution and air-dried at room temperature. SRB was then extracted in 10 mM trizma base solution and the absorbance measured in an automated spectrophotometric plate reader at 490 nm. Effects on cell growth and survival were estimated by applying the NCI algorithm (Boyd M R and Pauli K D. Drug Dev Res. 1995, 34, 91-104).
(§6) Using the mean±SD of triplicates, a dose-response curve was automatically generated using nonlinear regression analysis to a 4-parameter logistic curve. Three reference parameters were calculated (NCI algorithm) by automatic interpolation: GI50=compound concentration that produces 50% cell growth inhibition, as compared to control cultures; TGI=total cell growth inhibition (cytostatic effect), as compared to control cultures, and LC50=compound concentration that produces 50% net cell killing (cytotoxic effect).

A549 = test: SRB colorimetric cytotoxicity assay, A549; conditions: 72 hours treatment, lung carcinoma (NSCLC)
Source text: as §1, §2, §3, §4, §5, §6

HT29 = test: SRB colorimetric cytotoxicity assay, HT29; conditions: 72 hours treatment, colorectal adenocarcinoma
Source text: as §1, §2, §3, §4, §5, §6

MDA-MB-231 = test: SRB colorimetric cytotoxicity assay, MDA-MB-231; conditions: 72 hours treatment, breast adenocarcinoma
Source text: as §1, §2, §3, §4, §5, §6

Row | Compound | GI50 (PSN-1; Homo sapiens, PSN1, 72 h) [µM] | GI50 (A549; Homo sapiens, A549, 72 h) [µM] | GI50 (HT29; Homo sapiens, HT-29, 72 h) [µM] | GI50 (MDA-MB-231; Homo sapiens, MDA-MB-231, 72 h) [µM] | GI50 (PSN-1) [µM] | GI50 (A549) [µM] | GI50 (HT29) [µM] | GI50 (MDA-MB-231) [µM]
1 | C=CCOc1cc([C@@H](CCC)NC(=O)[C@]2(C)CSC(/C(C)=N/OCCCN)=N2)oc(=O)c1 (stereo in doubt) [Compound 153] | 0.00398 | 0.00398 | 0.00338 | 0.00432 |  |  |  | 
2 | C=CCOc1cc([C@@H](CCC)NC(=O)[C@]2(C)CSC(/C(C)=N/OCCCN)=N2)oc(=O)c1 (stereo in doubt) [Compound 154] |  |  |  |  | 0.00778 | 0.00479 | 0.00559 | 0.00679
3 | C#CCOc1cc([C@@H](CCC)NC(=O)[C@]2(C)CSC(/C(C)=N/OCCCN)=N2)oc(=O)c1 (stereo in doubt) [Compound 156] | 0.00243 | 0.00128 | 0.00243 | 0.0026 |  |  |  | 
4 | CCC[C@@H](NC(=O)[C@]1(C)CSC(/C(C)=N/OCCCN)=N1)c1cc(OCC2CC2)cc(=O)o1 (stereo in doubt) [Compound 158] | 0.00627 | 0.00543 | 0.00606 | 0.0121 |  |  |  | 
5 | CCC[C@@H](NC(=O)[C@]1(C)CSC(/C(C)=N/O)=N1)c1cc(OC)cc(=O)o1 [Compound 1] | 0.0288 | 0.0115 | 0.0144 | 0.0341 |  |  |  | 
6 | CCC[C@@H](NC(=O)[C@]1(C)CSC(/C(C)=N\O)=N1)c1cc(OC)cc(=O)o1 [Compound 1a] | 0.341 | 0.144 | 0.152 | 0.204 |  |  |  | 
7 | CCC[C@@H](NC(=O)[C@]1(C)CSC(/C(C)=N/OC)=N1)c1cc(OC)cc(=O)o1 [Compound 2] | 0.329 | 0.253 | 0.212 | 0.43 |  |  |  | 
8 | CCC[C@@H](NC(=O)[C@]1(C)CSC(C(C)=O)=N1)c1cc(OC)cc(=O)o1 [Compound 42] | 5.19 | 24.6 | 8.73 | 4.64 |  |  |  | 
9 | CCC[C@@H](NC(=O)[C@]1(C)CSC(C(C)(OCC)OCC)=N1)c1cc(OCC)cc(=O)o1 [Compound 46] | 4.62 | 2.42 | 2.18 | 1.52 |  |  |  | 
10 | CCCCCCCOc1cc([C@@H](CCC)NC(=O)[C@]2(C)CSC(C(C)(OCC)OCC)=N2)oc(=O)c1 [Compound 48] | 2.1 | 3.43 | 2.29 | 2.29 |  |  |  | 
11 | CCCCCCCCCCCCCCCCCOc1cc([C@@H](CCC)NC(=O)[C@]2(C)CSC(C(C)(OCC)OCC)=N2)oc(=O)c1 [Compound 49] | 1.46 | 1.34 | 0.932 | 1.5 |  |  |  | 
12 | C=CCOc1cc([C@@H](CCC)NC(=O)[C@]2(C)CSC(C(C)(OCC)OCC)=N2)oc(=O)c1 [Compound 50] | 0.814 | 0.643 | 0.514 | 0.536 |  |  |  | 
13 | C#CCOc1cc([C@@H](CCC)NC(=O)[C@]2(C)CSC(C(C)(OCC)OCC)=N2)oc(=O)c1 [Compound 51] | 0.366 | 0.344 | 0.215 | 0.323 |  |  |  | 
14 | CCC[C@@H](NC(=O)[C@]1(C)CSC(C(C)(OCC)OCC)=N1)c1cc(OCC2CC2)cc(=O)o1 [Compound 52] | 1.77 | 1.27 | 1.21 | 1.29 |  |  |  | 
15 | CCCCCCCOc1cc([C@@H](CCC)NC(=O)[C@]2(C)CSC(C(C)=O)=N2)oc(=O)c1 [Compound 61] | 1.73 | 1.84 | 1.4 | 1.44 |  |  |  | 
16 | CCCCCCCCCCCCCCCCCOc1cc([C@@H](CCC)NC(=O)[C@]2(C)CSC(C(C)=O)=N2)oc(=O)c1 [Compound 62] | 1.64 | 1.61 | 1.1 | 1.69 |  |  |  | 
17 | C=CCOc1cc([C@@H](CCC)NC(=O)[C@]2(C)CSC(C(C)=O)=N2)oc(=O)c1 [Compound 63] | 0.408 | 0.815 | 0.51 | 0.484 |  |  |  | 
18 | C#CCOc1cc([C@@H](CCC)NC(=O)[C@]2(C)CSC(C(C)=O)=N2)oc(=O)c1 [Compound 64] | 0.0717 | 0.0999 | 0.0615 | 0.0538 |  |  |  | 
19 | CCC[C@@H](NC(=O)[C@]1(C)CSC(C(C)=O)=N1)c1cc(OCC2CC2)cc(=O)o1 [Compound 65] | 1.25 | 1.89 | 1.08 | 1.03 |  |  |  | 

Row | Compound | GI50 (PSN-1; Homo sapiens, PSN1, 72 h) [µM] | GI50 (A549; Homo sapiens, A549, 72 h) [µM] | GI50 (HT29; Homo sapiens, HT-29, 72 h) [µM] | GI50 (MDA-MB-231; Homo sapiens, MDA-MB-231, 72 h) [µM] | GI50 (PSN-1) [µM] | GI50 (A549) [µM] | GI50 (HT29) [µM] | GI50 (MDA-MB-231) [µM]
20 | C=Cc1cc([C@@H](CCC)NC(=O)[C@]2(C)CSC(C(C)=O)=N2)oc(=O)c1 [Compound 68] | 4.69 | 11 | 9.1 | 6.62 |  |  |  | 
21 | COc1cc([C@@H](CC(C)C)NC(=O)[C@]2(C)CSC(/C(C)=N/O)=N2)oc(=O)c1 [Compound 69] | 1.52 | 2.2 | 1.59 | 1.62 |  |  |  | 
22 | COc1cc([C@@H](CC(C)C)NC(=O)[C@]2(C)CSC(/C(C)=N\O)=N2)oc(=O)c1 [Compound 69a] | 6.32 | 5.06 | 3.79 | 4.55 |  |  |  | 
23 | CCC[C@@H](NC(=O)[C@]1(C)CSC(/C(C)=N/O)=N1)c1cc(OCC)cc(=O)o1 [Compound 70] | 0.0149 | 0.0144 | 0.0149 | 0.0238 |  |  |  | 
24 | CCCCOc1cc([C@@H](CCC)NC(=O)[C@]2(C)CSC(/C(C)=N/O)=N2)oc(=O)c1 [Compound 71] | 0.0104 | 0.00708 | 0.00756 | 0.0144 |  |  |  | 
25 | CCCCOc1cc([C@@H](CCC)NC(=O)[C@]2(C)CSC(/C(C)=N\O)=N2)oc(=O)c1 [Compound 71a] | 0.0307 | 0.0165 | 0.017 | 0.0354 |  |  |  | 
26 | CCCCCCCOc1cc([C@@H](CCC)NC(=O)[C@]2(C)CSC(/C(C)=N/O)=N2)oc(=O)c1 [Compound 72] | 0.0215 | 0.0258 | 0.0301 | 0.0301 |  |  |  | 
27 | CCCCCCCOc1cc([C@@H](CCC)NC(=O)[C@]2(C)CSC(/C(C)=N\O)=N2)oc(=O)c1 [Compound 72a] | 0.125 | 0.11 | 0.183 | 0.103 |  |  |  | 
28 | CCCCCCCCCCCCCCCCCOc1cc([C@@H](CCC)NC(=O)[C@]2(C)CSC(/C(C)=N/O)=N2)oc(=O)c1 [Compound 73] | 0.347 | 0.38 | 0.396 | 0.33 |  |  |  | 
29 | CCCCCCCCCCCCCCCCCOc1cc([C@@H](CCC)NC(=O)[C@]2(C)CSC(/C(C)=N\O)=N2)oc(=O)c1 [Compound 73a] | 0.0594 | 0.0644 | 0.0627 | 0.066 |  |  |  | 
30 | C=CCOc1cc([C@@H](CCC)NC(=O)[C@]2(C)CSC(/C(C)=N/O)=N2)oc(=O)c1 [Compound 74] | 0.00319 | 0.00417 | 0.00294 | 0.00491 |  |  |  | 
31 | C=CCOc1cc([C@@H](CCC)NC(=O)[C@]2(C)CSC(/C(C)=N\O)=N2)oc(=O)c1 [Compound 74a] | 0.0125 | 0.0081 | 0.00761 | 0.00982 |  |  |  | 
32 | C#CCOc1cc([C@@H](CCC)NC(=O)[C@]2(C)CSC(/C(C)=N/O)=N2)oc(=O)c1 [Compound 75] | 0.00118 | 0.00101 | 0.000962 | 0.00138 |  |  |  | 
33 | C#CCOc1cc([C@@H](CCC)NC(=O)[C@]2(C)CSC(/C(C)=N\O)=N2)oc(=O)c1 [Compound 75a] | 0.002 | 0.00212 | 0.00118 | 0.00271 |  |  |  | 
34 | CCC[C@@H](NC(=O)[C@]1(C)CSC(/C(C)=N/O)=N1)c1cc(OCC2CC2)cc(=O)o1 [Compound 76] | 0.00308 | 0.00356 | 0.0038 | 0.0038 |  |  |  | 
35 | CCC[C@@H](NC(=O)[C@]1(C)CSC(/C(C)=N\O)=N1)c1cc(OCC2CC2)cc(=O)o1 [Compound 76a] | 0.00451 | 0.0038 | 0.00427 | 0.00451 |  |  |  | 
36 | CCC[C@@H](NC(=O)[C@]1(C)CSC(/C(C)=N/O)=N1)c1cc(N(CC)CC)cc(=O)o1 [Compound 77] | 2.37 | 2.15 | 1.18 | 1.96 |  |  |  | 
37 | CCC[C@@H](NC(=O)[C@]1(C)CSC(/C(C)=N/O)=N1)c1cc(C)cc(=O)o1 [Compound 78] | 0.0328 | 0.0249 | 0.0438 | 0.0438 |  |  |  | 
